Assay results from PMC8049364, “Quantification of Macrophage-Driven Inflammation During Myocardial Infarction with ^18F-LW223, a Novel TSPO Radiotracer with Binding Independent of the rs6971 Human Polymorphism” (Journal of Nuclear Medicine, 2021).

Columns and labels:
[1] = molecular target: T1, TSPO (Rattus norvegicus, UniProt P16257); test: PET/CT imaging and 2-tissue-compartment kinetic modelling in naïve and PK11195-blocked rats; assay type: in vivo; parameters: K1 (2T analysis), mean / k2 (2T analysis), mean / k3 (2T analysis), mean / k4 (2T analysis), mean / VT (2T analysis), mean: unit not given here
T1 construct: Thirty-three adult male Sprague–Dawley rats; from tissue; host or cells: living adult male Sprague-Dawley rats; heart, LV anterior wall, lung and brain VOIs
Description: Thirty-two PET scans were performed with ^18F-LW223 (17.8 ± 1.5 MBq, intravenous bolus, mean ± SEM). Naïve and MI rat scans were acquired immediately after intravenous bolus injection of ^18F-LW223. […] Dosimetry studies were conducted using mice and 240-min PET scans.
A commercially available system (Twilite2; Swisstrace) was used for the measurement of blood radioactivity as previously described ([17]). The whole-blood arterial input function measured by the automatic blood sampler was corrected for the plasma–to–whole-blood ratio and for metabolism in vivo.
Data were acquired using a PET/CT small-animal scanner (nanoPET/CT; Mediso). A CT scan (semicircular full trajectory, maximum field of view, 480 projections, 50 kVp, 300 ms, and 1:4 binning) was acquired for attenuation correction. Immediately after radiotracer administration, a 120- or 240-min emission scan was obtained using 3-dimensional 1:5 mode. For rat studies, rebinning was 18 × 10 s, 2 × 30 s, 1 × 60 s, 2 × 2 min, 10 × 5 min, 6 × 10 min, or 18 × 10 min. For mouse studies, rebinning was 4 × 5 min, 4 × 10 min, or 9 × 20 min. Rat PET studies were reconstructed using the iterative Tera-Tomo 3-dimensional reconstruction algorithm (Mediso), which includes point-spread correction, and the following settings: 4 iterations, 6 subsets, full detector model, low regularization, spike filter on, voxel size of 0.4 mm, and 400- to 600-keV energy window. Mouse dosimetry PET data were reconstructed using filtered backprojection, a voxel size of 0.4 mm, and a 400- to 600-keV energy window. All PET data were corrected for randoms, scatter, and attenuation.
Reconstructed scans were imported into PMOD, version 3.8 (PMOD Technologies). Volumes of interest (VOIs) were manually drawn around the brain, heart, and lung using CT images. To sample the infarct area (or an equivalent area in naïve hearts), averaged PET images (0–120 min) were used to place 3 spheric VOIs at the center of the infarct territory within the ventricular wall (1.5 mm^3). […] Time–activity curves were generated, and SUVs were calculated as concentration in the VOI divided by injected dose divided by animal weight. Kinetic modeling was performed using the 2-tissue-compartment model to estimate the kinetic rate constants K1–k4 and the total volume of distribution (VT) in different tissues. Blood volume fraction (VB) was not modeled in this study. Two-tissue-compartment modeling was selected as the preferred model on the basis of a comparison of goodness and robustness of fitting versus several other models (Supplemental Fig. 3; Supplemental Table 2). The binding potential relative to nondisplaceable volume (BPND) was defined as k3/k4 ([19]). The transfer-corrected BPND, termed BPTC, was formulated as follows:Eq. 1 BPTC=k3/k4÷K1,

[2] = Plasma free fraction by ultrafiltration; assay type: in vitro ADME; details: Sprague-Dawley, rat, mean ± SEM, n = 5, read-out: parent free fraction in plasma
Description: kept on ice until analyzed. Radioactivity in whole blood and plasma, as well as homogenized tissue samples, was assessed using a well-type γ-counter using a 400– 1400 keV window (Perkin Elmer Wizzard2, USA). Plasma samples (400 μl) and tissue samples (500 μl) were processed by acetonitrile denaturation (1:1.4 v/v) and analyzed by HPLC (Ultimate2000, ThermoFisher, UK) on a Luna C18(2) 10×250 mm, 10 μm column (Phenomenex, UK) with acetonitrile/water 70/30 and flow rate of 4 mL/min to estimate the parent fraction. The plasma fp was determined using ultrafiltration units (Centrifree® 30K, […]
Simulation of Changes in 18F-LW223 BPND for varying blood flow scenarios Simulation work was carried out using a Matlab (MathWorks, USA) 2-tissue compartment code with Ordinary Differential Equation (ODE) solvers. Six different levels of K1 values (0.9, 0.7, 0.5, 0.3, 0.1 and 0.01 mL/min/cc) were tested with fixed k2 and vB=0.05. The following BPND values were simulated: 4, 10, 16 and 20; with k3 modified and k4 fixed. All micro parameters used in the simulations are shown in Supplementa l Table 5. The input function used was an average of the blood curve s taken from healthy animals using the SwissTrace blood sampler (Supplemental Data File 1). The plasma to whole blood ratio used was 1.84 and the AIF was metabolite corrected using a population based curve as in the experimental data. […]

[3] = Brain, Blocked Naive (PK11195, 1mg/kg) n = 3
[4] = Global Heart, Blocked Naive (PK11195, 1mg/kg) n = 3
[5] = LV Anterior Wall, Blocked Naive (PK11195, 1mg/kg) n = 3
[6] = Lung, Blocked Naive (PK11195, 1mg/kg) n = 3

SMILES: CC[C@@H](C)N(C)C(=O)c1nc2ccccc2c(-c2ccccc2)c1C[18F] [^18F-LW223]
- K1 (2T analysis), mean [1, 3]: 0.06
- VT (2T analysis), mean [1, 3]: 0.93
- k2 (2T analysis), mean [1, 3]: 0.11
- k3 (2T analysis), mean [1, 3]: 2.324
- k3/k4 (2T analysis), mean [1, 3]: 0.71
- k4 (2T analysis), mean [1, 3]: 2.33
- K1 (2T analysis), mean ([1]; Brain, Naive n = 6): 0.14
- VT (2T analysis), mean ([1]; Brain, Naive n = 6): 1.6
- k2 (2T analysis), mean ([1]; Brain, Naive n = 6): 0.18
- k3 (2T analysis), mean ([1]; Brain, Naive n = 6): 0.016
- k3/k4 (2T analysis), mean ([1]; Brain, Naive n = 6): 1.22
- k4 (2T analysis), mean ([1]; Brain, Naive n = 6): 0.01
- K1 (2T analysis), mean [1, 4]: 0.19
- VT (2T analysis), mean [1, 4]: 4.56
- k2 (2T analysis), mean [1, 4]: 0.23
- k3 (2T analysis), mean [1, 4]: 0.721
- k3/k4 (2T analysis), mean [1, 4]: 4.52
- k4 (2T analysis), mean [1, 4]: 0.13
- K1 (2T analysis), mean ([1]; Global Heart, Naive n = 6): 0.58
- VT (2T analysis), mean ([1]; Global Heart, Naive n = 6): 9.93
- k2 (2T analysis), mean ([1]; Global Heart, Naive n = 6): 0.33
- k3 (2T analysis), mean ([1]; Global Heart, Naive n = 6): 0.031
- k3/k4 (2T analysis), mean ([1]; Global Heart, Naive n = 6): 4.77
- k4 (2T analysis), mean ([1]; Global Heart, Naive n = 6): 0.01
- K1 (2T analysis), mean [1, 5]: 0.28
- VT (2T analysis), mean [1, 5]: 75.25
- k2 (2T analysis), mean [1, 5]: 0.08
- k3 (2T analysis), mean [1, 5]: 0.855
- k3/k4 (2T analysis), mean [1, 5]: 12.64
- k4 (2T analysis), mean [1, 5]: 0.23
- K1 (2T analysis), mean ([1]; LV Anterior Wall, Naive n = 6): 0.9
- VT (2T analysis), mean ([1]; LV Anterior Wall, Naive n = 6): 29.95
- k2 (2T analysis), mean ([1]; LV Anterior Wall, Naive n = 6): 0.26
- k3 (2T analysis), mean ([1]; LV Anterior Wall, Naive n = 6): 0.033
- k3/k4 (2T analysis), mean ([1]; LV Anterior Wall, Naive n = 6): 7.99
- k4 (2T analysis), mean ([1]; LV Anterior Wall, Naive n = 6): 0.00
- K1 (2T analysis), mean [1, 6]: 0.16
- VT (2T analysis), mean [1, 6]: 2.2
- k2 (2T analysis), mean [1, 6]: 0.35
- k3 (2T analysis), mean [1, 6]: 0.181
- k3/k4 (2T analysis), mean [1, 6]: 3.19
- k4 (2T analysis), mean [1, 6]: 0.05
- K1 (2T analysis), mean ([1]; Lung, Naive n = 6): 0.94
- VT (2T analysis), mean ([1]; Lung, Naive n = 6): 6.94
- k2 (2T analysis), mean ([1]; Lung, Naive n = 6): 0.32
- k3 (2T analysis), mean ([1]; Lung, Naive n = 6): 0.031
- k3/k4 (2T analysis), mean ([1]; Lung, Naive n = 6): 1.38
- k4 (2T analysis), mean ([1]; Lung, Naive n = 6): 0.02
- specificity of in vivo binding to TSPO ([1]; PK11195 1 mg/kg intravenously, blocking and displacement): blocked and displaced by PK11195
- BPTC ([1]; anterior wall of naïve animals): 10.0 ± 2.4 cm^3/mL/min
- excretion routes ([1]; mice and rats): both the urinary and the hepatobiliary excretion routes
- Peak SUV, brain ([1]; naïve rat): 0.83 ± 0.18 g/mL
- SUVpeak, heart ([1]; rat): 2.5
- SUVpeak, lung ([1]; rat): 4.0
- VT in the brain ([1]; rat): 1.1–2.2 mL/cm^3
- fraction unbound [2]: 0.385
